Each molecule was assayed on NF-kB transcriptional activity in HEK-293-NF-kB-Luc cell line overexpressing MALT1 (assay: NF-kB reporter assay (luciferase, MALT1 stably overexpressed)). Details: Homo sapiens, 24 h, HEK-293-NF-kB-Luc cells stably overexpressing MALT1, 24 h treatment, Bright Glo luminescence; read-out: NF-kB inhibition IC50.
Format: cell-based
Experimental: The NF-⇐B reporter assay was performed to screen for MALT1 inhibition mediated reduction in the NF-⇐B transcriptional activity. For this purpose, MALT1 was stably overexpressed in HEK-293—NF-⇐B-Luc cell line. Cells were seeded in poly-D-lysine coated 96-well plates in a culture medium containing the selection markers (DMEM+10% FBS+50 |g/ml Hygromycin+500 |g/ml Geniticin) and allowed to adhere overnight. On the following day, cells were treated with various concentrations of test compounds for 24 h. After 24 h of treatment with test compounds, media was removed from each well and Bright Glo™ (Promega, USA) substrate was added and incubated for further 10 min at ambient temperature. Luminescence was measured for detection of NF-⇐B reporter activity. RLUs (Relative Luminescence Units) were directly proportional to the NF-⇐B activity. % inhibition of NF-⇐B activity was calculated relative to the samples containing media with 0.1% DMSO alone as per the following formula

`CCOC(C)c1c(NC(=O)Nc2ccc(-n3nccn3)c(Cl)c2)cnc2sc(C)nc12` (racemic) [Compound 161, 1-(3-Chloro-4-(2H-1,2,3-triazol-2-yl)phenyl)-3-(7-(1-ethoxyethyl)-2-methylthiazolo[5,4-b]pyridin-6-yl)urea] and `COC(C)c1c(NC(=O)Nc2ccc(-n3nccn3)c(C(F)F)c2)cnc2sc(C)nc12` (single isomer, unassigned) [Compound 207a, (R) or (S)-1-(3-(Difluoromethyl)-4-(2H-1,2,3-triazol-2-yl)phenyl)-3-(7-(1-methoxyethyl)-2-methylthiazolo[5,4-b]pyridin-6-yl)urea] fall in the same range of IC50: 1 to 100 nM for the first, 1 to 100 nM for the second.

`COc1nc(-n2ccnn2)c(Cl)cc1NC(=O)Nc1cnc2sc(C)nc2c1C(C)OC` (single isomer, unassigned) [Compound 91a, 1-(5-Chloro-2-methoxy-6-(1H-1,2,3-triazol-1-yl)pyridin-3-yl)-3-(7-(1-methoxyethyl)-2-methylthiazolo[5,4-b]pyridin-6-yl)urea] and `COc1cc(-n2ccnn2)c(Cl)cc1NC(=O)Nc1cnc2sc(C)nc2c1C(C)OC` (single isomer, unassigned) [Compound 132b, 1-(5-Chloro-2-methoxy-4-(1H-1,2,3-triazol-1-yl)phenyl)-3-(7-(1-methoxyethyl)-2-methylthiazolo[5,4-b]pyridin-6-yl)urea] fall in the same range of IC50: 1 to 100 nM for the first, 1 to 100 nM for the second.

`COC(C)(c1c(NC(=O)Nc2cnc(-n3nccn3)c(C(F)(F)F)c2)cnc2sc(C)nc12)C1CC1` (single isomer, unassigned) [Compound 93a, 1-(6-(2H-1,2,3-triazol-2-yl)-5-(trifluoromethyl)pyridin-3-yl)-3-(7-(1-cyclopropyl-1-methoxyethyl)-2-methylthiazolo[5,4-b]pyridin-6-yl)urea] and `CCC(OC)c1c(NC(=O)Nc2cnc(-n3nccn3)c(C(F)(F)F)c2)cnc2sc(C)nc12` (single isomer, unassigned) [Compound 146a, 1-(6-(2H-1,2,3-Triazol-2-yl)-5-(trifluoromethyl)pyridin-3-yl)-3-(7-(1-methoxypropyl)-2-methylthiazolo[5,4-b]pyridin-6-yl)urea] fall in the same range of IC50: 1 to 100 nM for the first, 1 to 100 nM for the second.

First: COc1ccc(NC(=O)Nc2cnc3sc(C)nc3c2C(C)OC)cc1Cl (single isomer, unassigned) [Compound 118b, 1-(3-chloro-4-methoxyphenyl)-3-(7-(1-methoxyethyl)-2-methylthiazolo[5,4-b]pyridin-6-yl)urea]
Second: COc1ncc(Cl)cc1NC(=O)Nc1cnc2sc(C)nc2c1C(C)OC (single isomer, unassigned) [Compound 120b, 1-(5-chloro-2-methoxypyridin-3-yl)-3-(7-(1-methoxyethyl)-2-methylthiazolo[5,4-b]pyridin-6-yl)urea]
The IC50 of the first is higher: 101 to 500 nM for the first, 1 to 100 nM for the second.

`COC(C)c1c(NC(=O)Nc2cnc(-n3ccnn3)c(Cl)c2)cnc2sc(C)nc12` (single isomer, unassigned) [Compound 123b, 1-(5-Chloro-6-(1H-1,2,3-triazol-1-yl)pyridin-3-yl)-3-(7-(1-methoxyethyl)-2-methylthiazolo[5,4-b]pyridin-6-yl)urea] and `COC(C)c1c(NC(=O)Nc2cnc(-n3ccnn3)c(C(F)(F)F)c2)cnc2sc(C)nc12` (single isomer, unassigned) [Compound 141a, 1-(6-(1H-1,2,3-Triazol-1-yl)-5-(trifluoromethyl)pyridin-3-yl)-3-(7-(1-methoxyethyl)-2-methylthiazolo[5,4-b]pyridin-6-yl)urea] fall in the same range of IC50: 1 to 100 nM for the first, 1 to 100 nM for the second.

`CCC(OC)c1c(NC(=O)Nc2cnc(OC)c(Cl)c2)cnc2sc(C)nc12` (single isomer, unassigned) [Compound 127a, 1-(5-Chloro-6-methoxypyridin-3-yl)-3-(7-(1-methoxypropyl)-2-methylthiazolo[5,4-b]pyridin-6-yl)urea] and `COC(C)c1c(NC(=O)Nc2cnc(OC(F)F)c(Cl)c2)cnc2sc(C)nc12` (single isomer, unassigned) [Compound 149a, 1-(5-Chloro-6-(difluoromethoxy)pyridin-3-yl)-3-(7-(1-methoxyethyl)-2-methylthiazolo[5,4-b]pyridin-6-yl)urea] fall in the same range of IC50: 1 to 100 nM for the first, 1 to 100 nM for the second.

`COC(C)c1c(NC(=O)Nc2cncc(C#N)c2)cnc2sc(C)nc12` (single isomer, unassigned) [Compound 129b, 1-(5-Cyanopyridin-3-yl)-3-(7-(1-methoxyethyl)-2-methylthiazolo[5,4-b]pyridin-6-yl)urea] and `COC(C)c1c(NC(=O)Nc2ccnc(C(F)(F)F)c2)cnc2sc(C)nc12` (single isomer, unassigned) [Compound 130b, 1-(7-(1-Methoxyethyl)-2-methylthiazolo[5,4-b]pyridin-6-yl)-3-(2-(trifluoromethyl)pyridin-4-yl)urea] fall in the same range of IC50: 1 to 100 nM for the first, 1 to 100 nM for the second.

Compared with `COC(C)c1c(NC(=O)Nc2cc(C(F)(F)F)cn(C)c2=O)cnc2sc(C)nc12` (single isomer, unassigned) [Compound 133b, 1-(7-(1-methoxyethyl)-2-methylthiazolo[5,4-b]pyridin-6-yl)-3-(1-methyl-2-oxo-5-(trifluoromethyl)-1,2-dihydropyridin-3-yl)urea], `COC(C)c1c(NC(=O)Nc2cnc(-c3ncc(C)o3)c(Cl)c2)cnc2sc(C)nc12` (single isomer, unassigned) [Compound 148b, 1-(5-Chloro-6-(5-methyloxazol-2-yl)pyridin-3-yl)-3-(7-(1-methoxyethyl)-2-methylthiazolo[5,4-b]pyridin-6-yl)urea] is lower in IC50: 501 to 1500 nM for the first, 1 to 100 nM for the second.

First: COc1ncc(NC(=O)Nc2cnc3sc(C)nc3c2C2CCCO2)cc1Cl (single isomer, unassigned) [Compound 135a, 1-(5-Chloro-6-methoxypyridin-3-yl)-3-(2-methyl-7-(tetrahydrofuran-2-yl)thiazolo[5,4-b]pyridin-6-yl)urea]
Second: COc1ncc(NC(=O)Nc2cnc3sc(C)nc3c2C2=CCOCC2)cc1Cl [Compound 58, 1-(5-Chloro-6-methoxypyridin-3-yl)-3-(7-(3,6-dihydro-2H-pyran-4-yl)-2-methylthiazolo[5,4-b]pyridin-6-yl)urea]
The IC50 of the first is lower: 1 to 100 nM for the first, 501 to 1500 nM for the second.

Compared with `Cc1nc2c(C3CCCO3)c(NC(=O)Nc3ccc(-n4nccn4)c(Cl)c3)cnc2s1` (single isomer, unassigned) [Compound 137a, 1-(3-Chloro-4-(2H-1,2,3-triazol-2-yl)phenyl)-3-(2-methyl-7-(tetrahydrofuran-2-yl)thiazolo[5,4-b]pyridin-6-yl)urea], `Cc1nc2c(C3CCCCO3)c(NC(=O)Nc3cnc(-n4nccn4)c(Cl)c3)cnc2s1` (single isomer, unassigned) [Compound 140b, 1-(5-Chloro-6-(2H-1,2,3-triazol-2-yl)pyridin-3-yl)-3-(2-methyl-7-(tetra hydro-2H-pyran-2-yl)thiazolo[5,4-b]pyridin-6-yl)urea] is higher in IC50: 1 to 100 nM for the first, 101 to 500 nM for the second.

`COC(c1c(NC(=O)Nc2cnc(-n3nccn3)c(Cl)c2)cnc2sc(C)nc12)C1CC1` (single isomer, unassigned) [Compound 154a, 1-(5-Chloro-6-(2H-1,2,3-triazol-2-yl)pyridin-3-yl)-3-(7-(cyclopropyl(methoxy)methyl)-2-methylthiazolo[5,4-b]pyridin-6-yl)urea] and `COc1nc(-n2nccn2)c(Cl)cc1NC(=O)Nc1cnc2sc(C)nc2c1C(OC)C1CC1` (single isomer, unassigned) [Compound 156a, 1-(5-Chloro-2-methoxy-6-(2H-1,2,3-triazol-2-yl)pyridin-3-yl)-3-(7-(cyclopropyl(methoxy)methyl)-2-methylthiazolo[5,4-b]pyridin-6-yl)urea] fall in the same range of IC50: 1 to 100 nM for the first, 1 to 100 nM for the second.

`CCC(C)c1c(NC(=O)Nc2cnc(-n3nccn3)c(Cl)c2)cnc2sc(C)nc12` (single isomer, unassigned) [Compound 157a, 1-(7-(sec-Butyl)-2-methylthiazolo[5,4-b]pyridin-6-yl)-3-(5-chloro-6-(2H-1,2,3-triazol-2-yl)pyridin-3-yl)urea] and `CCC(c1c(NC(=O)Nc2cnc(-n3nccn3)c(Cl)c2)cnc2sc(C)nc12)N(C)C` (single isomer, unassigned) [Compound 227b, 1-(5-Chloro-6-(2H-1,2,3-triazol-2-yl)pyridin-3-yl)-3-(7-(1-(dimethylamino)propyl)-2-methylthiazolo[5,4-b]pyridin-6-yl)urea] fall in the same range of IC50: 1 to 100 nM for the first, 1 to 100 nM for the second.

`CCOC(C)c1c(NC(=O)Nc2cc(Cl)c(-n3nccn3)nc2OC)cnc2sc(C)nc12` (single isomer, unassigned) [Compound 166b, 1-(5-Chloro-2-methoxy-6-(2H-1,2,3-triazol-2-yl)pyridin-3-yl)-3-(7-(1-ethoxyethyl)-2-methylthiazolo[5,4-b]pyridin-6-yl)urea] and `COCC(C)N(C)c1c(NC(=O)Nc2cnc(-n3nccn3)c(Cl)c2)cnc2sc(C)nc12` (stereo not shown) [Compound 53a, 1-(5-Chloro-6-(2H-1,2,3-triazol-2-yl)pyridin-3-yl)-3-(7-((1-methoxypropan-2-yl)(methyl)amino)-2-methylthiazolo[5,4-b]pyridin-6-yl)urea] fall in the same range of IC50: 1 to 100 nM for the first, 1 to 100 nM for the second.

Compared with `COC(C)c1c(NC(=O)Nc2ccc(-c3ncccn3)c(Cl)c2)cnc2sc(C)nc12` (single isomer, unassigned) [Compound 202, (S) or (R)-1-(3-Chloro-4-(pyrimidin-2-yl)phenyl)-3-(7-(1-methoxyethyl)-2-methylthiazolo[5,4-b]pyridin-6-yl)urea], `Cc1nc2c(C3CC3)c(NC(=O)Nc3ccnc(C#N)c3)cnc2s1` [Compound 12, 1-(2-Cyanopyridin-4-yl)-3-(7-cyclopropyl-2-methylthiazolo[5,4-b]pyridin-6-yl)urea] is higher in IC50: 1 to 100 nM for the first, 501 to 1500 nM for the second. The first is the more potent here.

Source: US20190275012A9, “SUBSTITUTED THIAZOLO-PYRIDINE COMPOUNDS AS MALT1 INHIBITORS” (Lupin Limited, priority 2016, published 2019)
